# Laboratory results from patent US20090163474A1, “FXR Agonists for the Treatment of Nonalcoholic Fatty Liver and Cholesterol Gallstone Diseases” (Wyeth, priority 2007, published 2009).
# Tests used:
# [1] = system: C57BL/6 mice fed a Paigen diet; assay: Paigen diet fed mice: serum, liver gene expression and liver histology; assay type: in vivo; settings: 30 mg/kg orally once a day for 4 weeks
# Experimental: Male C57BL/6 mice were fed a standard chow diet or a Paigen diet (TestDiet 32350 containing 7.5% Cocoa Butter, 1.25% cholesterol, and 0.5% cholic acid). Paigen diet fed mice were administered vehicle or 30 mg/kg FXR agonist, Compound A (isopropyl 3-(3,4-difluorobenzoyl)-1,1-dimethyl-1,2,3,6-tetrahydroazepino[4,5-b]indole-5-carboxylate) orally once a day for 4 weeks. Three hours after the final treatment, mice were euthanized and blood and liver were collected for analyses.
# Real-time RT PCR analysis of liver RNA was performed. FIGS. 3A, 3B, and 3C show the expression levels of vascular cell adhesion molecule 1 (VCAM-1), intercellular adhesion molecule-1 (ICAM-1), and tumor necrosis factor α (TNFα). Expression levels were normalized to GAPDH, and the mean level of expression of each gene in mice fed a standard chow diet was defined as 1.0. 6 mice were tested in each group. Data are presented as the mean±SE.
# Male C57BL/6 mice were fed a chow diet or a Paigen diet. Paigen fed mice were administered vehicle or 30 mg/kg Compound A orally once a day for 4 weeks. Three hours after the final treatment, mice were euthanized, and histological analysis of livers was performed. Frozen liver sections (5 μm) were prepared and stained with Oil Red O, hematoxylin and eosin (H&E), and Masson's trichrome (Trichrome).
# Male C57BL/6 mice were fed a chow diet or a Paigen diet. Paigen fed mice were administered vehicle or 30 mg/kg Compound A orally once a day for 4 weeks. Three hours after the final treatment, mice were euthanized, and real-time RT PCR analysis of liver RNA was performed.
# mice fed a Paigen diet = assay: Gallstone formation in Paigen diet fed mice; assay type: in vivo; settings: 30 mg/kg orally once a day for 4 weeks
# Experimental: To study gallstone formation, gallbladders were harvested from mice fed a Paigen diet and administered vehicle or 30 mg/kg Compound A orally once a day for 4 weeks.
# [2] = system: mice with preformed gallstones; assay: Gallbladder bile lipid composition, preformed gallstones; assay type: in vivo
# Experimental: Disrupted cholesterol, phospholipid, and bile salt homeostasis contributes to the formation of gallstones. Gallbladder bile lipid composition was quantitated from mice treated as follows. A group of mice (CHOW) was fed a standard chow diet. Another group of mice was fed a Paigen diet and administered vehicle (Paigen/Vehicle) or 30 mg/kg Compound A (Paigen/Compound A) orally once a day for 4 weeks. To preform gallstones, mice were fed initially a Paigen diet for 4 weeks and subsequently fed a standard chow diet and administered vehicle (Preformed/Vehicle) or 30 mg/kg Compound A (Preformed/Compound A) orally once a day for 4 weeks. […] Data are presented as the mean±SE.
# [3] = system: C57Bl/6 mice fed a MCD diet (preformed NASH); assay: Preformed NASH in MCD diet fed mice; assay type: in vivo; settings: MCD diet 2 weeks
# From the text: C57Bl/6 mice were fed a MCD diet for 2 weeks to induce the development of NASH to study the effect of Compound A treatment on preformed NASH. These mice were then maintained on the MCD diet while being treated with vehicle or Compound A. Mice were euthanized 2 weeks (2 w), and 4 weeks (4 w) after the beginning of treatment with vehicle or Compound A for analysis. As controls, mice were fed a chow diet or fed a MCD diet for 2 weeks, and then euthanized for analysis.
# Hep3B cells [4] = assay: IL-6 induced CRP gene expression in Hep3B cells; assay type: cell-based, Human; settings: Compound A 1 μM; IL-6 10 ng/ml or 50 ng/ml; P<0.001 vs DMSO
# Experimental: Human hepatoma cells, Hep3B secrete the acute phase protein, C-reactive protein (CRP) upon IL-6 treatment. Cells were cotreated with Compound A to determine if Compound A could decrease IL-6 induced CRP secretion.
# FIGS. 26A and 26B show the CRP gene expression level in Hep3B cells stimulated with IL-6 (10 ng/ml or 50 ng/ml), and treated with vehicle (DMSO) or Compound A (1 μM). […] (*P<0.001, Hep3B/DMSO vs. Hep3B/Compound A).
# Hep3B cells [5] = assay: FXR siRNA studies in Hep3B cells; assay type: cell-based, Human; settings: Compound A 1 μM, 50 ng/ml IL-6
# Experimental: FXR siRNA studies were performed in Hep3B cells. […] The cells were transfected with FXR siRNA or control siRNA, stimulated with 50 ng/ml IL-6, and treated with control (DMSO) or Compound A (1 μM). CRP concentrations in the conditional media were measured by ELISA. (*P<0.01, Control siRNA/DMSO vs. Control siRNA/Compound A).
# The Hep3B cells were transfected with FXR siRNA or control siRNA, stimulated with 50 ng/ml IL-6, and treated with control (DMSO) or Compound A (1 μM). […] (*P<0.001, Control siRNA vs. FXR siRNA).
# [6] = RT PCR, normalized to GAPDH, p<0.0001
# [7] = Preformed/Compound A vs Preformed/Vehicle
# [8] = Preformed/Compound A, Paigen diet 4 weeks, then chow and 30 mg/kg orally once a day for 4 weeks, mean±SE
# [9] = then 2-week (P<0.001) and 4-week (P<0.01) treatment on MCD diet
# [10] = then 2-week and 4-week treatment on MCD diet, P<0.01
smiles,measurement,setting,value
"CC(C)OC(=O)C1=CN(C(=O)c2ccc(F)c(F)c2)CC(C)(C)c2c1[nH]c1ccccc21 [Compound A, isopropyl 3-(3,4-difluorobenzoyl)-1,1-dimethyl-1,2,3,6-tetrahydroazepino[4,5-b]indole-5-carboxylate]",Paigen diet induced liver damage (histological analyses),[1],attenuated Paigen diet induced liver damage
same,intracellular vacuoles characteristic of lipid droplets in liver (H&E and Trichrome),[1],reduced the number and severity of the vacuoles
same,"liver BSEP expression level, increase",[1]; Paigen diet,2.41 fold
same,"liver MDR2 expression level, increase",[1]; Paigen diet,1.4 fold
same,"liver SHP expression level, increase",[1]; Paigen diet,4.85 fold
same,liver ICAM-1 expression level (Paigen diet induction),[1]; [6],significantly inhibited
same,liver TNFα expression level (Paigen diet induction),[1]; [6],significantly inhibited
same,liver VCAM-1 expression level (Paigen diet induction),[1]; [6],significantly inhibited
same,inflammatory cholangitis with portal inflammation in liver,[1]; histology,significantly more severe in the livers of vehicle treated compared to Compound A treated mice
same,serum alanine aminotransferase (ALT) activity level,"[1]; mean±SE, vehicle 292.1±33.6 U/L, p<0.0001",98.1±22.5 U/L
same,serum level of MCP-1 vs vehicle,[1]; p<0.0001,significantly reduced
same,neutral lipid accumulation in the liver (Oil Red O staining),[1]; vs vehicle,reduction in neutral lipid accumulation
same,"liver FAS expression, further induction","[1]; vs vehicle treated Paigen diet mice, p<0.0001",2.4 fold
same,cholesterol gallstones in gallbladders (gross morphology),mice fed a Paigen diet,clearly visible in the gallbladders of vehicle but not Compound A treated mice
same,"Gallstone formation (incidence, mice with gallstones/mice)",mice fed a Paigen diet; vehicle 14/19,0/20
same,incidence of gallstone formation,mice fed a Paigen diet; vehicle 73.7%,0%
same,bile cholesterol level vs vehicle,[2]; [7],higher
same,bile phospholipid level vs vehicle,[2]; [7],higher
same,bile salt level vs vehicle,[2]; [7],Lower
same,BS (bile salt) in gallbladder bile,[2]; [8],120.06 ± 14.28 mM
same,CE (cholesterol) in gallbladder bile,[2]; [8],7.54 ± 0.86 mM
same,PL (phospholipids) in gallbladder bile,[2]; [8],27.54 ± 2.14 mM
same,bile salt/phospholipid ratio vs vehicle,[2]; mice with preformed gallstones,significantly decreased
same,liver Col1a2 gene expression level vs vehicle,[3]; [9],significantly lowered
same,liver MMP-2 gene expression level vs vehicle,[3]; [9],significantly lowered
same,liver TIMP-1 gene expression level vs vehicle,[3]; [9],significantly lowered
same,liver MCP-1 gene expression level vs vehicle,[3]; [10],significantly lowered
same,liver VCAM-1 gene expression level vs vehicle,[3]; [10],significantly lowered
same,serum level of ALT vs vehicle,[3]; [10],significantly reduced
same,serum level of AST vs vehicle,[3]; [10],significantly reduced
same,IL-6 induced CRP mRNA levels,Hep3B cells [4],reduced
same,CRP inhibition at the mRNA level in cells transfected with FXR siRNA,Hep3B cells [5],suppressed
same,inhibitory effect on CRP secretion in cells transfected with FXR siRNA,Hep3B cells [5]; ELISA,FXR siRNA blocked Compound A's inhibitory effect
